As a reminder, the Dmax is the largest share of the target that was removed. Higher therefore signals a fuller loss of target. The DC50 is the midpoint of the concentration-degradation curve.

From patent publication US12624044B2, “SMARCA degraders and uses thereof” (Kymera Therapeutics, Inc., priority 2019, dated 2026) come the findings set out here.

In the assay the target is SMARCA2 (Homo sapiens, UniProt P51531). In words: MSD SMARCA2 degradation in NCI-H1299 cell line (24 h). The format is cell-based. Also on record: HC: NCI-H1299 cells treated with DMSO; host or cells: NCI-H1299. The conditions noted are these: for Dmax: NCI-H1299, NCI-H1299 cells; for DC50: NCI-H1299 cells, read-out: SMARCA2 MSD H1299 degradation 24 h: External Abs-DC50. In short, it runs like this: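 SMARCA2 measured by MSD electrochemiluminescence (primary 0.3 ug/ml, secondary 1 ug/ml) on lysates from NCI-H1299 cells exposed to compounds for 24 h across nine 3-fold dilutions. Signal scaled from A2780 cells (no SMARCA2) to DMSO-treated H1299 controls, and maximal degradation after 24 h reported in letter categories.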
Sequence of SMARCA2 (P51531 whole entry): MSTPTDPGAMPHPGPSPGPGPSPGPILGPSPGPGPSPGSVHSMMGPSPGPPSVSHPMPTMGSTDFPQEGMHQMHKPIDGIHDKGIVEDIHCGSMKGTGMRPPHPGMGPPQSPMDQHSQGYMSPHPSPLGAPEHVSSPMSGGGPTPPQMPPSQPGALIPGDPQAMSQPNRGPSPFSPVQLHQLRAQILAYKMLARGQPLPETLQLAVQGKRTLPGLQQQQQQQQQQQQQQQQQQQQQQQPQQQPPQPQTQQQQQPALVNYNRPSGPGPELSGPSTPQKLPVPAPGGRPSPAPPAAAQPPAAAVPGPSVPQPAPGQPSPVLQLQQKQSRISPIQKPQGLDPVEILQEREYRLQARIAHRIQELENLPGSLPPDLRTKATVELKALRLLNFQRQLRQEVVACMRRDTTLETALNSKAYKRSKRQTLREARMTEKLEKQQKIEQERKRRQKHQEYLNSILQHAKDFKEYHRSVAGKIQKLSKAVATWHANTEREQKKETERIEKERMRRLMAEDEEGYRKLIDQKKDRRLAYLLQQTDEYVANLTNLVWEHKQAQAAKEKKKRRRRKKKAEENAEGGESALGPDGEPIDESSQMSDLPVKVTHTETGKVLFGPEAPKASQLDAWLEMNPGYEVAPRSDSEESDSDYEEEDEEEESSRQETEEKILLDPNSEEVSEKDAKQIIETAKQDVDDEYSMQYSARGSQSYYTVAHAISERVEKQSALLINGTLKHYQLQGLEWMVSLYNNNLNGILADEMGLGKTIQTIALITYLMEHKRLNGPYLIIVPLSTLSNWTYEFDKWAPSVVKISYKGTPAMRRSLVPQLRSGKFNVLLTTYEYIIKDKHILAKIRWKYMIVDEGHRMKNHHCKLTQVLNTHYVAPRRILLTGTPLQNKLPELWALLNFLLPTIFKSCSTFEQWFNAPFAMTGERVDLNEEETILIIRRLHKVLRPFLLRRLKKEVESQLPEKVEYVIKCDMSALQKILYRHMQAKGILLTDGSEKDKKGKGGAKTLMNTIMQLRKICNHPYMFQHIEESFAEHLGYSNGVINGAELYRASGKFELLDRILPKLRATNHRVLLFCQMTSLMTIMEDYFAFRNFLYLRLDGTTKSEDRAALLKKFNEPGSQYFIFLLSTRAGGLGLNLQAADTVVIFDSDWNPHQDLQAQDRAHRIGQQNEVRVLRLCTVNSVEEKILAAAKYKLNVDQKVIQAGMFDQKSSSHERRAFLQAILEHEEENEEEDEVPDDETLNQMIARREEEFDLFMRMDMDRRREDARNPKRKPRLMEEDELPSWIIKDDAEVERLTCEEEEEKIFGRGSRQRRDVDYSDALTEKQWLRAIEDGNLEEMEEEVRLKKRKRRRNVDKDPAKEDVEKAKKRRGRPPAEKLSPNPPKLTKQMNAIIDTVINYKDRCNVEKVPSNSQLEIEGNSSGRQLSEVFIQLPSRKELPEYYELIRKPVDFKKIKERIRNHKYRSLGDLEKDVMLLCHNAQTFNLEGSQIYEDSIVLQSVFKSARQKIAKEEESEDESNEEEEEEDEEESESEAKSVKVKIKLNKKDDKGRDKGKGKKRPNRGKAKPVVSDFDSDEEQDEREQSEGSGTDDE

On to `Cn1c(=O)n(C2CCC(=O)NC2=O)c2cccc(CCCCCCCN3CCC(Cn4cc(-c5cc(-c6ccccc6O)nnc5N)cn4)CC3)c21` (centres unmarked) [I-149, 3-[4-[7-[4-[[4-[3-amino-6-(2-hydroxyphenyl)pyridazin-4-yl]pyrazol-1-yl]methyl]-1-piperidyl]heptyl]-3-methyl-2-oxo-benzimidazol-1-yl]piperidine-2,6-dione], for which the Dmax is over 90% and the DC50 was under 0.1 µM.
In the case of `Cn1c(=O)n(C2CCC(=O)NC2=O)c2ccc(CCCOCCOCCN3CCN(Cc4ccc(-c5cc(-c6ccccc6O)nnc5N)cc4)CC3)cc21` (centres unmarked) [I-135], the Dmax lay in the range of 50 to 70% and the DC50 was 0.1 to 0.5 µM.
With `Cc1ncsc1-c1ccc(CNC(=O)[C@@H]2C[C@@H](O)CN2C(=O)[C@@H](NC(=O)CCCCCCCN(C)Cc2ccc(N3CCN(c4cc(-c5ccccc5O)nnc4N)CC3)cc2)C(C)(C)C)cc1` [I-216], the Dmax lay within 70 to 90% and the DC50 lay within 0.501 to 1 µM.
For `Cc1ncsc1-c1ccc(CNC(=O)[C@@H]2C[C@@H](O)CN2C(=O)[C@@H](NC(=O)COCCOCCOCCNC(=O)CCCOc2cccc(N3C[C@H]4C[C@@H]3CN4/C=C/C(=O)c3ccccc3O)n2)C(C)(C)C)cc1` [I-218], the DC50 is over 1 µM.
The same measure, in the same setting: under `Cn1c(=O)n(C2CCC(=O)NC2=O)c2ccc(CCCOCCOCCOCCNC(=O)CCCCCCCCOc3ccc(N4C[C@H]5C[C@@H]4CN5/C=C/C(=O)c4ccccc4O)nc3)cc21` (some centres unmarked) [I-4] stands over 1 µM; under `Cn1c(=O)n(C2CCC(=O)NC2=O)c2ccc(CCCOCCOCCOCCOCCOCCNC(=O)CCCCCCCCOc3ccnc(N4C[C@H]5C[C@@H]4CN5/C=C/C(=O)c4ccccc4O)c3)cc21` (some centres unmarked) [I-22], over 1 µM.
Turning to `Cn1c(=O)n(C2CCC(=O)NC2=O)c2ccc(CCCN3CCN(Cc4ccc(-c5cc(-c6ccccc6O)nnc5N)cc4)CC3)cc21` (centres unmarked) [I-139], the Dmax lay within 50 to 70% and the DC50 is under 0.1 µM.
Taken in the same sequence, the figures for `Cn1c(=O)n(C2CCC(=O)NC2=O)c2ccc(CCCCCCCc3cn(Cc4cccc(N5C[C@H]6C[C@@H]5CN6/C=C/C(=O)c5ccccc5O)n4)nn3)cc21` (some centres unmarked) [I-47] were under 50% and over 1 µM.
Consider `Cc1ncsc1-c1ccc(CNC(=O)[C@@H]2C[C@@H](O)CN2C(=O)[C@@H](NC(=O)COCCOCCOCCOCCNC(=O)CCCCCCCCOc2ccc(N3C[C@H]4C[C@@H]3CN4/C=C/C(=O)c3ccccc3O)nc2)C(C)(C)C)cc1` [I-231], for which the DC50 is over 1 µM.
The same measure, in the same setting: under `Cn1c(=O)n(C2CCC(=O)NC2=O)c2ccc(CNCc3cn(Cc4cccc(N5C[C@H]6C[C@@H]5CN6/C=C/C(=O)c5ccccc5O)n4)nn3)cc21` (some centres unmarked) [I-27] stands over 1 µM.
Take `Cn1c(=O)n(C2CCC(=O)NC2=O)c2cccc(CCCCCCCCc3cn(Cc4cccc(N5C[C@H]6C[C@@H]5CN6/C=C/C(=O)c5ccccc5O)n4)nn3)c21` (some centres unmarked) [I-53]: the Dmax is under 50% and the DC50 was over 1 µM.
In the case of `Cn1c(=O)n(C2CCC(=O)NC2=O)c2cccc(CCCOc3cccc(CN4CCN(c5cc(-c6ccccc6O)nnc5N)CC4)c3)c21` (centres unmarked) [I-95], the Dmax is under 50% and the DC50 was over 1 µM.
The matching figures for `Cn1c(=O)n(C2CCC(=O)NC2=O)c2ccc(C#CCCCc3cn(Cc4cccc(N5C[C@H]6C[C@@H]5CN6/C=C/C(=O)c5ccccc5O)n4)nn3)cc21` (some centres unmarked) [I-60]: under 50% and over 1 µM.
In the case of `Cn1c(=O)n(C2CCC(=O)NC2=O)c2ccc(CCCOCCOCCOCCNC(=O)CCCCCCCCOc3ccnc(N4C[C@H]5C[C@@H]4CN5/C=C/C(=O)c4ccccc4O)c3)cc21` (some centres unmarked) [I-20], the DC50 was over 1 µM.
For the compound `Cn1c(=O)n(C2CCC(=O)NC2=O)c2cccc(CCCN3CCC(n4cc(-c5cc(-c6ccccc6O)nnc5N)cn4)CC3)c21` (centres unmarked) [I-174, 3-[4-[3-[4-[4-[3-amino-6-(2-hydroxyphenyl)pyridazin-4-yl]pyrazol-1-yl]-1-piperidyl]propyl]-3-methyl-2-oxo-benzimidazol-1-yl]piperidine-2,6-dione], the Dmax was over 90% and the DC50 was under 0.1 µM.
On to `Cn1c(=O)n(C2CCC(=O)NC2=O)c2cccc(CCCN3CCC[C@@H](Cn4cc(-c5cc(-c6ccccc6O)nnc5N)cn4)C3)c21` (some centres unmarked) [I-188], for which the Dmax fell in the range of 70 to 90% and the DC50 was in the range of 0.1 to 0.5 µM.
Taken in the same sequence, the figures for `Cn1c(=O)n(C2CCC(=O)NC2=O)c2ccc(CCCCN3CCC[C@@H](Cn4cc(-c5cc(-c6ccccc6O)nnc5N)cn4)C3)cc21` (some centres unmarked) [I-192] were 50 to 70% and 0.1 to 0.5 µM.
Turning to `Cn1c(=O)n(C2CCC(=O)NC2=O)c2cccc(CCCOCCOc3cccc(N4C[C@H]5C[C@@H]4CN5/C=C/C(=O)c4ccccc4O)n3)c21` (some centres unmarked) [I-30], the DC50 was over 1 µM.
In the case of `Cn1c(=O)n(C2CCC(=O)NC2=O)c2cccc(CCCCN3CCC[C@@H](Cn4cc(-c5cc(-c6ccccc6O)nnc5N)cn4)C3)c21` (some centres unmarked) [I-189], the Dmax was over 90% and the DC50 is under 0.1 µM.
With `Cn1c(=O)n(C2CCC(=O)NC2=O)c2cccc(CN3CCCC(n4cc(-c5cc(-c6ccccc6O)nnc5N)cn4)C3)c21` (centres unmarked) [I-168], the Dmax lay in the range of 50 to 70% and the DC50 was in the range of 0.1 to 0.5 µM.
Taken in the same sequence, the figures for `Cn1c(=O)n(C2CCC(=O)NC2=O)c2cccc(CCCOCCCCN3CCN(Cc4ccc(-c5cc(-c6ccccc6O)nnc5N)cc4)CC3)c21` (centres unmarked) [I-155] were 50 to 70% and 0.1 to 0.5 µM.
Taken in the same sequence, the figures for `O=C1CCC(n2c(=O)n(CCCCCCCCc3cn(Cc4cccc(N5C[C@H]6C[C@@H]5CN6/C=C/C(=O)c5ccccc5O)n4)nn3)c3ccccc32)C(=O)N1` (some centres unmarked) [I-58] were under 50% and over 1 µM.
Take `Cc1ncsc1-c1ccc(CNC(=O)[C@@H]2C[C@@H](O)CN2C(=O)[C@@H](NC(=O)COCCOCCOCCOCCOCCNC(=O)CCCCCCCCOc2ccnc(N3C[C@H]4C[C@@H]3CN4/C=C/C(=O)c3ccccc3O)c2)C(C)(C)C)cc1` [I-222]: the DC50 is over 1 µM.
Consider `Cc1ncsc1-c1ccc(CNC(=O)[C@@H]2C[C@@H](O)CN2C(=O)[C@@H](NC(=O)COCCOCCOCCOCCOCCNC(=O)c2ccc(C(C)n3cc(-c4cc(-c5ccccc5O)nnc4N)cn3)cc2)C(C)(C)C)cc1` (some centres unmarked) [I-226], for which the DC50 is over 1 µM.
On the same count and under the same terms, under `Cc1ncsc1-c1ccc(CNC(=O)[C@@H]2C[C@@H](O)CN2C(=O)[C@@H](NC(=O)COCCOCCOCCNC(=O)CCCCCCCCOc2ccc(N3C[C@H]4C[C@@H]3CN4/C=C/C(=O)c3ccccc3O)nc2)C(C)(C)C)cc1` [I-228] stands over 1 µM.
Still for that read-out and setting: under `CC(c1ccc(C(=O)NCCOCCOCCOCCOCCCc2ccc3c(c2)n(C)c(=O)n3C2CCC(=O)NC2=O)cc1)n1cc(-c2cc(-c3ccccc3O)nnc2N)cn1` (centres unmarked) [I-13] stands over 1 µM.
In the case of `Cn1c(=O)n(C2CCC(=O)NC2=O)c2cccc(CCCCOc3ccc(CN4CCN(c5cc(-c6ccccc6O)nnc5N)CC4)cc3)c21` (centres unmarked) [I-91], the Dmax is under 50% and the DC50 was over 1 µM.
Take `Cc1ncsc1-c1ccc(CNC(=O)[C@@H]2C[C@@H](O)CN2C(=O)[C@@H](NC(=O)COCCOCCOCCOCCOCCOCCNC(=O)c2ccc(C(C)n3cc(-c4cc(-c5ccccc5O)nnc4N)cn3)cc2)C(C)(C)C)cc1` (some centres unmarked) [I-225]: the DC50 is over 1 µM.
Same read-out and setting: the same measure for `O=C1CCC(N2C(=O)c3cccc(OCCOCCc4cn(Cc5cccc(N6C[C@H]7C[C@@H]6CN7/C=C/C(=O)c6ccccc6O)n5)nn4)c3C2=O)C(=O)N1` (some centres unmarked) [I-39]: over 1 µM.
Regarding `O=C1CCC(n2c(=O)n(CCCCc3cn(Cc4cccc(N5C[C@H]6C[C@@H]5CN6/C=C/C(=O)c5ccccc5O)n4)nn3)c3ccccc32)C(=O)N1` (some centres unmarked) [I-54], the Dmax is under 50% and the DC50 was over 1 µM.
Taken in the same sequence, the figures for `Cn1c(=O)n(C2CCC(=O)NC2=O)c2ccc(C#CCCCCCCc3cn(Cc4cccc(N5C[C@H]6C[C@@H]5CN6/C=C/C(=O)c5ccccc5O)n4)nn3)cc21` (some centres unmarked) [I-63] were under 50% and over 1 µM.
As for `COc1cc(C(=O)NCCCCCCCCCN2CCN(Cc3ccc(-c4cc(-c5ccccc5O)nnc4N)cc3)CC2)ccc1NC(=O)[C@@H]1N[C@@H](CC(C)(C)C)[C@](C#N)(c2ccc(Cl)cc2F)[C@H]1c1cccc(Cl)c1F` [I-233, (2R,3S,4R,5S)—N-[4-[9-[4-[[4-[3-amino-6-(2-hydroxyphenyl)pyridazin-4-yl]phenyl]methyl]piperazin-1-yl]nonylcarbamoyl]-2-methoxy-phenyl]-3-(3-chloro-2-fluoro-phenyl)-4-(4-chloro-2-fluoro-phenyl)-4-cyano-5-(2,2-dimethylpropyl)pyrrolidine-2-carboxamide], the Dmax is under 50% and the DC50 is over 1 µM.
Consider `CC(c1ccc(C(=O)NCCOCCOCCOCCNc2cccc3c2C(=O)N(C2CCC(=O)NC2=O)C3=O)cc1)n1cc(-c2cc(-c3ccccc3O)nnc2N)cn1` (centres unmarked) [I-9], for which the DC50 is over 1 µM.
Regarding `Cn1c(=O)n(C2CCC(=O)NC2=O)c2ccc(CCc3cnc(N4C5CCC4CN(c4cc(-c6ccccc6O)nnc4N)C5)nc3)cc21` (centres unmarked) [I-186, 3-[5-[2-[2-[3-[3-amino-6-(2-hydroxyphenyl)pyridazin-4-yl]-3,8-diazabicyclo[3.2.1]octan-8-yl]pyrimidin-5-yl]ethyl]-3-methyl-2-oxo-benzimidazol-1-yl]piperidine-2,6-dione], the Dmax was in the range of 50 to 70% and the DC50 lay within 0.1 to 0.5 µM.
The matching figures for `Cn1c(=O)n(C2CCC(=O)NC2=O)c2cccc(CCCOCCOCCOCCOCCN3CCN(Cc4ccc(-c5cc(-c6ccccc6O)nnc5N)cc4)CC3)c21` (centres unmarked) [I-133]: under 50% and over 1 µM.
Taken in the same sequence, the figures for `Cn1c(=O)n(C2CCC(=O)NC2=O)c2cccc(CCCCCCCCN3CCC(Cn4cc(-c5cc(-c6ccccc6O)nnc5N)cn4)CC3)c21` (centres unmarked) [I-150] were over 90% and under 0.1 µM.
For the compound `Cn1c(=O)n(C2CCC(=O)NC2=O)c2ccc(CCCCCCCN3CCCC(n4cc(-c5cc(-c6ccccc6O)nnc5N)cn4)C3)cc21` (centres unmarked) [I-180], the Dmax was under 50% and the 50% degradation concentration (DC50) was over 1 µM.
The matching figures for `Cn1c(=O)n(C2CCC(=O)NC2=O)c2cccc(CCCCOc3cccc(CN4CCN(c5cc(-c6ccccc6O)nnc5N)CC4)c3)c21` (centres unmarked) [I-96]: 50 to 70% and 0.1 to 0.5 µM.
